Tests used:
[1] = biological target: T1, endogenous MFSD7C and HMOX1 (Mus musculus, UniProt Q91X85); assay: Co-IP of endogenous MFSD7C and HMOX1 in bone marrow-derived macrophages; assay type: cell-based; conditions: heme treatment
T1 construct: Co-IP and immunoblotting analysis of endogenous MFSD7C with ATP5h, SERCA2b and HMOX1 in bone marrow-derived macrophages; endogenous in cells; host or cells: bone marrow-derived macrophages from Mfsd7c fl/fl C57BL/6 mice
Description: NTD was incubated with heme and run on Superdex 75 gel filtration column. The flow through was measured for absorbance at 230 nm (gray), 380 nm (blue), and 415 nm (green). Absorbance intensity was normalized to maximum value. […] Heme (100 μM) absorption was set to zero. […] Wildtype (WT) and mutant (Mut) peptide sequences are shown. […] Shown are representative data from five separate experiments. […] Shown are immunoblots of MFSD7C, ATP5h, SERCA2b, and HMOX1 on whole lysates or immunoblots of MFSD7C on anti-ATP5h, anti-SERCA2b and anti-HMOX1 immunoprecipitates. Representative data from one from three experiments are shown. […] Shown are representative data from three separate experiments. WCE: whole cell extract, Sup: supernatant, Mito: 10,000 g mitochondrial fraction. […] THP-1 cells were stained with MitoTracker (green), fixed and permeabilized, and then stained with rabbit polyclonal antibody specific for the C-terminus of MFSD7C, followed with Alexa Fluor® 594-labelled goat anti-rabbit antibody (red). Nuclei were labeled using DAPI (blue). […]
Differentiation of bone marrow-derived macrophage (BMDM). […] Cells were resuspended in DMEM media containing 10% FBS, 2 mM L-glutamine, 2 mM pyruvate, non-essential amino acids (100 μM each), 0.55 mM 2-mercaptoethanol, penicillin/streptomycin), passed through a 40 μm Falcon cell strainer (VWR) to remove large aggregates, and counted. […]

[2] = biological target: T2, interaction between HMOX1 and MFSD7C (Mus musculus, UniProt Q91X85); assay: Co-IP of HA-tagged MFSD7C with FLAG-tagged HMOX1 in transfected 293FT cells; assay type: cell-based, murine; conditions: 10 μM or 40 μM heme for one hour before cell lysis
T2 construct: expressed in transfected cells; host or cells: 293FT cells
T2 sequence (Q91X85 whole entry): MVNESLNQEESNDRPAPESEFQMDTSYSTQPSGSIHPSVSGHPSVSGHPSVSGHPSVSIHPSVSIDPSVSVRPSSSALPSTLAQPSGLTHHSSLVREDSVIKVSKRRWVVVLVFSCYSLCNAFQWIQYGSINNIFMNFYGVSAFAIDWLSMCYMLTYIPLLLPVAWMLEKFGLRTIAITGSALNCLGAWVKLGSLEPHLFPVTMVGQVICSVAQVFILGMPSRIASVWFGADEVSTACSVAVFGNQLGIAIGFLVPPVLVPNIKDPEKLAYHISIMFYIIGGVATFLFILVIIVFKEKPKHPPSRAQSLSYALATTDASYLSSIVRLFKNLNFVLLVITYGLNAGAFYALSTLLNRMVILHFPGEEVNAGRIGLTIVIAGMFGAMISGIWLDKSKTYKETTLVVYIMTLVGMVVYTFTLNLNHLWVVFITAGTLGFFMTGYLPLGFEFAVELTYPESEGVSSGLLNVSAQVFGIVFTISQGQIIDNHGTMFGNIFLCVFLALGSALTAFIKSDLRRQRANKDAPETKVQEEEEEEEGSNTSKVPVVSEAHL
T2 sequence (P14901 whole entry partner): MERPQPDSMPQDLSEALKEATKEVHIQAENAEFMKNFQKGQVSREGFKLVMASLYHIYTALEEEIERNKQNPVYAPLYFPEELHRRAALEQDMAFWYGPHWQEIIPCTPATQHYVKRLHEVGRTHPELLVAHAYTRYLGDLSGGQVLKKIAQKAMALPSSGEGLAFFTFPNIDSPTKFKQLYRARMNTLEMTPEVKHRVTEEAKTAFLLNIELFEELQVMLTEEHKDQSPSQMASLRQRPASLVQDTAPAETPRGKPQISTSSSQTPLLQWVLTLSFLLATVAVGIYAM
Description: Co-transfection and immunoprecipitation. For co-IP, HA-tagged MFSD7C was co-transfected with FLAG-tagged HMOX1 (Origene Catalog No. MR203944), CYC1, COX4I1, NDUFA4, ATP5h, ATP5c1 into 293FT cells using TransIT®-LT1 Transfection Reagent (Mirus). Thirty-six hours after transfection, the cells were lysed using cold Lysis Buffer containing 20 mM Tris-HCl (pH 7.4), 150 mM NaCl, 0.1% NP-40, 10% glycerol, proteinase inhibitor (Sigma Catalog No. 4693132001), and phosphatase inhibitors (Sigma Catalog No. 4906845001). The clear supernatants from the lysate were incubated with M2-magnetic beads conjugated with anti-FLAG antibody (Sigma Catalog No. M8823) for 2 hours at 4° C. Then the beads were washed twice and eluted by the 3× FLAG peptides (Sigma Catalog No. F4799).
To determine the effect of heme on MFSD7C interactions with ETC components, HMOX1 or SERCA2b, 293FT cells were transiently transfected with HA-tagged murine MFSD7C and FLAG-tagged murine CYC1, NDUFA4, COX4i1, ATP5h, ATP5c1, HMOX1 or SERCA2b. 35 hrs later, co-transfected cells were incubated with DMSO (vehicle) or 10 μM or 40 μM of heme for one hour before lysis. Cell lysates were precipitated with anti-HA antibody, eluted with HA peptide, further precipitated with anti-FLAG antibody, eluted with FLAG peptide, and then subjected to Western blotting with anti-HA and anti-FLAG antibodies. […]

[3] = biological target: T3, MFSD7C-SERCA2b co-localization (Homo sapiens, UniProt Q9UPI3); assay: Confocal co-localization of MFSD7C and SERCA2b in THP-1 cells; assay type: cell-based; conditions: 40 μM heme 1 hour, 0.89 without heme
T3 construct: host or cells: THP-1 cells
T3 sequence (Q9UPI3 whole entry): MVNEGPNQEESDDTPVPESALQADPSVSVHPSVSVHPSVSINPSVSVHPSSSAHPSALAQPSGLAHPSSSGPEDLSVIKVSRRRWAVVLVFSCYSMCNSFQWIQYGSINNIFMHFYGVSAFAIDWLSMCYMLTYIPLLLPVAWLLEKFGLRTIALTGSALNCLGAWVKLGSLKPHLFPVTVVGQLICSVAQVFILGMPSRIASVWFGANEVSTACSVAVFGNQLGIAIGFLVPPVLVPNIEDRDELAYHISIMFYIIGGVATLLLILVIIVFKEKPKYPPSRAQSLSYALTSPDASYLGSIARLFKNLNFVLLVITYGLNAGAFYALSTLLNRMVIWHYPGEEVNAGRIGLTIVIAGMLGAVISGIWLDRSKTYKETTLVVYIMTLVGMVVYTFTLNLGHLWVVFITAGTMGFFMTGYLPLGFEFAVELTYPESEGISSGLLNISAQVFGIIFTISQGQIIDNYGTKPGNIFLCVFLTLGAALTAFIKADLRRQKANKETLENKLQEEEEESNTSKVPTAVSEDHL
Description: FIGS. 16A-16F show Co-localization of MFSD7C and SERCA2b. […] Shown are representative images of THP-1 cells stained for MFSD7C (red), SERCA2b (green), nuclei (blue) and merged image. […] THP-1 cells were not treated or treated with 40 μM of heme for 1 hour and then stained for MFSD7C, SERCA2b and nuclei as in (FIG. 16A). Co-localization between MFSD7C and SERCA2b was quantified. Shown are representative merged images (FIG. 16B) and comparison of Pearson's correlation coefficients values with or without heme treatment (FIG. 16C) (in FIG. 16C, n=7 biologically independent samples). P-values were calculated using unpaired t-test (***p<0.05). […] THP-1 cells were stained for MFSD7C (red), ER (green), mitochondria (blue), and DNA (grey). Shown are representative single and merged images (FIG. 16D). Enlarged image of the boxed area is shown in the last panel (bottom-right). Pearson's rank correlation values between the indicated comparisons are shown (FIG. 16E). (n=3 biologically independent samples). […] THP-1 cells were incubated with FPT for 6 hours, washed, treated with or without 4 μM thapsingargin for 2 hours. The cells were washed and reseeded in poly-lysine coated glass bottom dishes. After cells attached to the glass, medium containing 40 μM heme was added. Cells in the same field were imaged immediately (0 min) and again 1 hour later. […]

T1 sequence (Q91X85 whole entry): as the sequence (Q91X85 whole entry) above
T1 sequence (P14901 whole entry partner): as the sequence (P14901 whole entry partner) above

C=CC1=C(C)c2cc3[n-]c(cc4[n-]c(cc5nc(cc1n2)C(C)=C5C=C)c(C)c4CCC(=O)O)c(CCC(=O)O)c3C.[Fe+2] [heme]
interactions between endogenous MFSD7C and HMOX1 (co-IP) [1]: enhanced
interaction between HMOX1 and MFSD7C (co-IP) [2]: enhanced
Pearson's correlation coefficient value of MFSD7C/SERCA2b co-localization [3]: 0.67
